Measured values as given in article PMC7587356, “High-Throughput Screening for Inhibitors of the SARS-CoV-2 Protease Using a FRET-Biosensor” (Molecules, 2020).
Counter-ions that a name gives are not always drawn. Like-named read-outs stand apart in the source and are kept apart here.

Molecular target: SARS-CoV-2 3CLpro (Severe acute respiratory syndrome coronavirus 2, UniProt P0DTD1)
Test: biochemical
Format: biochemical
Parameters: Replicate_1 / Replicate_2 / mean / mean (LOPAC_screen_w_protease): unit not given here
Details: for inhibition at 5 µM: 4 h
[1] = LOPAC1280 primary screen with protease, 5 µM compound, replicate 1, read-out: Replicate_1 (LOPAC_screen_w_protease)
[2] = LOPAC1280 primary screen with protease, 5 µM compound, replicate 2, read-out: Replicate_2 (LOPAC_screen_w_protease)
[3] = LOPAC1280 primary screen with protease, 5 µM compound, mean of two replicates
[4] = sheet LOPAC_screen_w_protease, primary screen with protease, mean of two replicates, read-out: mean
[5] = sheet LOPAC_screen_w_protease, primary screen with protease, replicate 1, read-out: Replicate_1
[6] = sheet LOPAC_screen_w_protease, primary screen with protease, replicate 2, read-out: Replicate_2
[7] = sheet LOPAC_screen_w_protease, LOPAC1280 primary screen with protease, 5 µM compound, mean of the two replicates
[8] = sheet LOPAC_screen_w_protease, LOPAC1280 primary screen with protease, 5 µM compound, replicate 1
[9] = sheet LOPAC_screen_w_protease, LOPAC1280 primary screen with protease, 5 µM compound, replicate 2
[10] = sheet LOPAC_screen_w_protease, primary screen with protease, mean of two replicates
[11] = sheet LOPAC_screen_w_protease, primary screen with protease, replicate 1
[12] = sheet LOPAC_screen_w_protease, primary screen with protease, replicate 2
[13] = LOPAC1280 primary screen with protease, 5 µM compound, replicate 1
[14] = LOPAC1280 primary screen with protease, 5 µM compound, replicate 2
[15] = sheet LOPAC_screen_w_protease, LOPAC1280 at 5 µM, mean of two replicates, read-out: mean
[16] = sheet LOPAC_screen_w_protease, LOPAC1280 at 5 µM, replicate 1, read-out: Replicate_1
[17] = sheet LOPAC_screen_w_protease, LOPAC1280 at 5 µM, replicate 2, read-out: Replicate_2
[18] = sheet LOPAC_screen_w_protease, primary screen with protease, compound at 5 µM, mean of two replicates
[19] = sheet LOPAC_screen_w_protease, primary screen with protease, compound at 5 µM, replicate 1
[20] = sheet LOPAC_screen_w_protease, primary screen with protease, compound at 5 µM, replicate 2

For `CN(C)c1nc(N)c(C(=O)NC(=N)N)nc1Cl` [5-(N,N-Dimethyl)amiloride hydrochloride], the inhibition at 5 µM [1] was 1.67%, the inhibition at 5 µM [2] was 1.33% and the “mean (LOPAC_screen_w_protease)” value [3] was 1.502.

`CCCN1C[C@H](CSC)C[C@@H]2c3cccc4[nH]cc(c34)C[C@H]21` [Pergolide methanesulfonate] showed an inhibition at 5 µM (sheet LOPAC_screen_w_protease, primary screen with protease, 5 µM, mean of two replicates, read-out: mean) of 0.241%, an inhibition at 5 µM (sheet LOPAC_screen_w_protease, primary screen with protease, 5 µM, replicate 1, read-out: Replicate_1) of 0.0285% and an inhibition at 5 µM (sheet LOPAC_screen_w_protease, primary screen with protease, 5 µM, replicate 2, read-out: Replicate_2) of 0.454%.

In the case of `CC1=C(C)C(=O)C(CCCCC#CCCCC#CCO)=C(C)C1=O` [AA-861], the inhibition at 5 µM [4] is reported as 2.27%, the inhibition at 5 µM [5] is reported as 3.11% and the inhibition at 5 µM [6] is reported as 1.43%.

For `Cl.Cl.Fc1ccc(C(OCCN2CCN(CCCc3ccccc3)CC2)c2ccc(F)cc2)cc1` [GBR-12909 dihydrochloride], the mean [7] was 4.322, the Replicate_1 [8] was 4.518 and the Replicate_2 [9] was 4.126.

For `NC(N)=NCc1cccc(I)c1.NC(N)=NCc1cccc(I)c1.O=S(=O)(O)O` [m-Iodobenzylguanidine hemisulfate], the mean [10] was 2.496, the Replicate_1 [11] was 1.063 and the Replicate_2 [12] was 3.929.

For `CC1CNCCN1S(=O)(=O)c1cccc2cnccc12.Cl.Cl` (stereo not drawn) [H-7 dihydrochloride], the “mean (LOPAC_screen_w_protease)” value [3] was 1.4971, the “Replicate_1 (LOPAC_screen_w_protease)” value [13] was 2.345 and the “Replicate_2 (LOPAC_screen_w_protease)” value [14] was 0.6491.

For `CO[C@@]1(NC(=O)CSCC#N)C(=O)N2C(C(=O)O)=C(CSc3nnnn3C)CS[C@@H]21` [Cefmetazole sodium], the inhibition at 5 µM [1] was 1.13%, the inhibition at 5 µM [2] was 2.27% and the “mean (LOPAC_screen_w_protease)” value [3] was 1.702.

For L-Methionine sulfoximine, the “Replicate_1 (LOPAC_screen_w_protease)” value was 2.433, the “Replicate_2 (LOPAC_screen_w_protease)” value was 0.2989 and the “mean (LOPAC_screen_w_protease)” value was 1.366.

In the case of `CCCCNc1cc(C(=O)O)cc(S(N)(=O)=O)c1Oc1ccccc1` [Bumetanide], the inhibition at 5 µM (read-out: Replicate_1) is reported as -0.596%, the inhibition at 5 µM (read-out: Replicate_2) is reported as 1.11% and the inhibition at 5 µM (read-out: mean) is reported as 0.258%.

In the case of `O=C(NCC1CCCCN1)c1cc(OCC(F)(F)F)ccc1OCC(F)(F)F` (stereo not drawn) [Flecainide acetate], the inhibition at 5 µM [15] is reported as 1.01%, the inhibition at 5 µM [16] is reported as 2.84% and the inhibition at 5 µM [17] is reported as -0.814%.

`CCCCCCCCCCCCCCC[C@H](O)[C@H](N)CO` (racemic) [DL-erythro-Dihydrosphingosine] was tested, and the “mean (LOPAC_screen_w_protease)” value [3] was 1.428, the “Replicate_1 (LOPAC_screen_w_protease)” value [13] was 4.536 and the “Replicate_2 (LOPAC_screen_w_protease)” value [14] was -1.681.

With `OC[C@H]1NC[C@@H](O)[C@@H]1O` [1,4-Dideoxy-1,4-imino-D-arabinitol] the “mean (LOPAC_screen_w_protease)” value [3] was 1.627, the “Replicate_1 (LOPAC_screen_w_protease)” value [13] was 1.388 and the “Replicate_2 (LOPAC_screen_w_protease)” value [14] was 1.866.

With `CN1C2CCC1CC(OC(c1ccccc1)c1ccc(Cl)cc1)C2.Cl` (stereo not drawn) the “Replicate_1 (LOPAC_screen_w_protease)” value was 2.149, the “Replicate_2 (LOPAC_screen_w_protease)” value was 0.9226 and the “mean (LOPAC_screen_w_protease)” value was 1.536.

`C[C@@H](NC(=O)/C(C#N)=C/c1ccc(O)c(O)c1)c1ccccc1` [Tyrphostin AG 527] showed a mean [18] of 2.942, a Replicate_1 [19] of 4.113 and a Replicate_2 [20] of 1.771.

`NC12CC3CC(CC(C3)C1)C2` [Amantadine hydrochloride] showed an inhibition at 5 µM [4] of 2.48%, an inhibition at 5 µM [5] of 1.91% and an inhibition at 5 µM [6] of 3.05%.

`C=CCc1ccccc1OCC(O)CNC1(C)CCC(C(C)(C)NC(=O)CBr)CC1` (stereo not drawn) [Bromoacetyl alprenolol menthane] gave an inhibition at 5 µM [15] of 1.3%, an inhibition at 5 µM [16] of 0.0303% and an inhibition at 5 µM [17] of 2.58%.

`CC1=C(/C=C/C(C)=C/C=C/C(C)=C/C=C/C=C(C)/C=C/C=C(C)/C=C/C2=C(C)C(=O)[C@@H](O)CC2(C)C)C(C)(C)C[C@H](O)C1=O` [Astaxanthin] gave an inhibition at 5 µM (sheet LOPAC_screen_w_protease, primary screen of LOPAC1280 at 5 µM with protease, mean of the two replicates, read-out: mean) of 3.4%, an inhibition at 5 µM (sheet LOPAC_screen_w_protease, primary screen of LOPAC1280 at 5 µM with protease, replicate 1, read-out: Replicate_1) of 2.58% and an inhibition at 5 µM (sheet LOPAC_screen_w_protease, primary screen of LOPAC1280 at 5 µM with protease, replicate 2, read-out: Replicate_2) of 4.22%.

With `O=C1Nc2ccccc2/C1=C1/Nc2ccccc2/C1=N\O` [Indirubin-3'-oxime] the “mean (LOPAC_screen_w_protease)” value [3] was 1.392, the “Replicate_1 (LOPAC_screen_w_protease)” value [13] was 2.012 and the “Replicate_2 (LOPAC_screen_w_protease)” value [14] was 0.7725.

`CN(C)CCCN1c2ccccc2Sc2ccc(Cl)cc21` [Chlorpromazine hydrochloride] showed an inhibition at 5 µM (read-out: Replicate_1) of 0.794%, an inhibition at 5 µM (read-out: Replicate_2) of 0.374% and an inhibition at 5 µM (read-out: mean) of 0.584%.

Work on `CCN(c1nc(N)c(C(=O)NC(=N)N)nc1Cl)C(C)C` [5-(N-Ethyl-N-isopropyl)amiloride] yielded an inhibition at 5 µM [15] of 1.01%, an inhibition at 5 µM [16] of 1.63% and an inhibition at 5 µM [17] of 0.388%.

For `C[C@@]12N[C@@H](Cc3ccccc31)c1ccccc12.O=C(O)/C=C\C(=O)O` [(-)-MK-801 hydrogen maleate], the “mean (LOPAC screen with protease)” value (sheet LOPAC_screen_w_protease, primary screen at 5 µM, mean of two replicates) was 6.636, the “Replicate_1 (LOPAC screen with protease)” value (sheet LOPAC_screen_w_protease, primary screen at 5 µM, replicate 1) was 5.967 and the “Replicate_2 (LOPAC screen with protease)” value (sheet LOPAC_screen_w_protease, primary screen at 5 µM, replicate 2) was 7.306.

With `CNC[C@H](O)c1ccc(O)c(O)c1` [(-)-Epinephrine bitartrate] the inhibition at 5 µM (read-out: Replicate_1) was 5.37%, the inhibition at 5 µM (read-out: Replicate_2) was 0.847% and the inhibition at 5 µM (read-out: mean) was 3.11%.

`O=C(O)CCC/C=C\C[C@@H]1[C@@H](/C=C/[C@H](O)C2Cc3ccccc3C2)[C@@H](F)C[C@@H]1O` [AL-8810] gave a Replicate_1 of 0.247, a Replicate_2 of 1.148 and a mean of 0.6974.

`CCCCC1(C2CCCC2)Cc2cc(OCC(=O)O)c(Cl)c(Cl)c2C1=O` (stereo in doubt) [R(+)-Butylindazone] gave a mean [10] of 2.217, a Replicate_1 [11] of 3.715 and a Replicate_2 [12] of 0.7192.

`CC[C@@H](CO)NC(=O)[C@@H]1C=C2c3cccc4[nH]cc(c34)C[C@H]2N(C)C1` [Methylergonovine maleate] showed an inhibition at 5 µM (read-out: Replicate_1) of 1.27%, an inhibition at 5 µM (read-out: Replicate_2) of 0.625% and an inhibition at 5 µM (read-out: mean) of 0.949%.

`CNC(=O)[C@H]1O[C@@H](n2cnc3c(NCc4ccc(N)cc4)ncnc32)[C@H](O)[C@@H]1O` [AB-MECA] was tested, and the mean [18] was 2.5809, the Replicate_1 [19] was 2.895 and the Replicate_2 [20] was 2.266.

For `N#C/C(=C\c1ccc(O)c(O)c1)C(=O)NCCCNC(=O)/C(C#N)=C/c1ccc(O)c(O)c1` [Tyrphostin AG 537], the “mean (LOPAC_screen_w_protease)” value [3] was 1.443, the “Replicate_1 (LOPAC_screen_w_protease)” value [13] was 1.008 and the “Replicate_2 (LOPAC_screen_w_protease)” value [14] was 1.878.

Work on `CC(C)NC(C)Cc1ccc(I)cc1` (stereo not drawn) [Iofetamine hydrochloride] yielded an inhibition at 5 µM (read-out: Replicate_1) of 3.54%, an inhibition at 5 µM (read-out: Replicate_2) of 3.79% and an inhibition at 5 µM (read-out: mean) of 3.67%.

`O=C(O)c1cccnc1Nc1cccc(C(F)(F)F)c1` [Niflumic acid] showed an inhibition at 5 µM (sheet LOPAC_screen_w_protease, LOPAC1280 primary screen with protease, 5 µM compound, mean of the two replicates, read-out: mean) of 4.95%, an inhibition at 5 µM (sheet LOPAC_screen_w_protease, LOPAC1280 primary screen with protease, 5 µM compound, replicate 1, read-out: Replicate_1) of 4.76% and an inhibition at 5 µM (sheet LOPAC_screen_w_protease, LOPAC1280 primary screen with protease, 5 µM compound, replicate 2, read-out: Replicate_2) of 5.13%.

Work on `Cc1nc(N=Nc2ccc(S(=O)(=O)O)cc2S(=O)(=O)O)c(COP(=O)(O)O)c(C=O)c1O` [PPADS] yielded a mean (sheet LOPAC_screen_w_protease, primary screen with protease, 5 µM, mean of two replicates) of 0.05886, a Replicate_1 (sheet LOPAC_screen_w_protease, primary screen with protease, 5 µM, replicate 1) of -0.6012 and a Replicate_2 (sheet LOPAC_screen_w_protease, primary screen with protease, 5 µM, replicate 2) of 0.7189.

`C#CCN1C(C)=C(C(=O)OC)C(c2cccc([N+](=O)[O-])c2)C(C(=O)OCC)=C1C` (stereo not drawn) [MRS 1845] was tested, and the mean [7] was 4.379, the Replicate_1 [8] was 3.994 and the Replicate_2 [9] was 4.765.

`Nc1ncnc2c1nc(Sc1ccc(Cl)cc1)n2C1OC2COP(=O)(O)OC2C1O` (stereo in doubt) [8-(4-Chlorophenylthio)-cAMP sodium] gave a mean (sheet LOPAC_screen_w_protease, LOPAC1280 primary screen at 5 µM, with protease, mean of the two replicates) of 0.5451, a Replicate_1 (sheet LOPAC_screen_w_protease, LOPAC1280 primary screen at 5 µM, with protease, replicate 1) of 0.8706 and a Replicate_2 (sheet LOPAC_screen_w_protease, LOPAC1280 primary screen at 5 µM, with protease, replicate 2) of 0.2195.

`N#C/C(=C\c1ccc(O)c(O)c1)C(=O)N1CCc2ccccc21` [Tyrphostin AG 528] gave a mean (sheet LOPAC_screen_w_protease, primary screen of LOPAC1280 at 5 µM with protease, mean of the two replicates) of 3.92, a Replicate_1 (sheet LOPAC_screen_w_protease, primary screen of LOPAC1280 at 5 µM with protease, replicate 1) of 3.707 and a Replicate_2 (sheet LOPAC_screen_w_protease, primary screen of LOPAC1280 at 5 µM with protease, replicate 2) of 4.133.

Compound `CCOC(=O)C(C)(C)Oc1ccc(Cl)cc1` [Clofibrate] has an inhibition at 5 µM (sheet LOPAC_screen_w_protease, primary screen with protease, compound at 5 µM, mean of two replicates, read-out: mean) of 2.71%, an inhibition at 5 µM (sheet LOPAC_screen_w_protease, primary screen with protease, compound at 5 µM, replicate 1, read-out: Replicate_1) of 1.49% and an inhibition at 5 µM (sheet LOPAC_screen_w_protease, primary screen with protease, compound at 5 µM, replicate 2, read-out: Replicate_2) of 3.93%.
